Converted amounts (≈) assume the structure as drawn.
Columns and labels:
[1] = test system: Trichosporon asahii; experiment: Antifungal activity against Trichosporon asahii 1188 after 24 hrs by broth microdilution method; assay type: functional; details: Trichosporon asahii, 1188, 24 h
[2] = test system: Enterococcus sp.; experiment: Antibacterial activity against Enterococcus sp. HK14365/08 after 24 hrs by broth microdilution method; assay type: functional; details: HK14365/08, 24 h
[3] = test system: Candida tropicalis; experiment: Antifungal activity against Candida tropicalis 156 after 48 hrs by broth microdilution method; assay type: functional; details: Candida tropicalis, 156, 48 h
[4] = test system: Enterococcus sp.; experiment: Antibacterial activity against Enterococcus sp. HK14365/08 after 48 hrs by broth microdilution method; assay type: functional; details: HK14365/08, 48 h
[5] = test system: Mycobacterium avium; experiment: Antimycobacterial activity against Mycobacterium avium CNCTC My 330/80 after 14 days by micromethod; assay type: functional; details: CNCTC My 330/80, 336 h
[6] = test system: Klebsiella pneumoniae; experiment: Antibacterial activity against Klebsiella pneumoniae HK11750/08 after 48 hrs by broth microdilution method; assay type: functional; details: HK11750/08, 48 h
[7] = test system: Mycobacterium tuberculosis; experiment: Antimycobacterial activity against Mycobacterium tuberculosis H37Rv CNCTC My 331/88 after 21 days by micromethod; assay type: functional; details: H37Rv CNCTC My 331/88, 504 h
[8] = test system: Aspergillus fumigatus; experiment: Antifungal activity against Aspergillus fumigatus 231 after 48 hrs by broth microdilution method; assay type: functional; details: Aspergillus fumigatus, 231, 48 h
[9] = test system: Escherichia coli; experiment: Antibacterial activity against Escherichia coli ATCC 8739 after 24 hrs by broth microdilution method; assay type: functional; details: ATCC 8739, 24 h
[10] = test system: Candida albicans; experiment: Antifungal activity against Candida albicans ATCC 44859 after 24 hrs by broth microdilution method; assay type: functional; details: ATCC 44859, 24 h
[11] = test system: Lichtheimia corymbifera; experiment: Antifungal activity against Absidia corymbifera 272 after 24 hrs by broth microdilution method; assay type: functional; details: Lichtheimia corymbifera, 272, 24 h
[12] = test system: Staphylococcus aureus; experiment: Antibacterial activity against methicillin-resistant Staphylococcus aureus HK5996/08 after 48 hrs by broth microdilution method; assay type: functional; details: HK5996/08, 48 h
[13] = test system: Candida albicans; experiment: Antifungal activity against Candida albicans ATCC 44859 after 48 hrs by broth microdilution method; assay type: functional; details: ATCC 44859, 48 h
[14] = test system: Klebsiella pneumoniae; experiment: Antibacterial activity against Klebsiella pneumoniae HK11750/08 after 24 hrs by broth microdilution method; assay type: functional; details: HK11750/08, 24 h
[15] = test system: Staphylococcus aureus; experiment: Antibacterial activity against methicillin-resistant Staphylococcus aureus HK5996/08 after 24 hrs by broth microdilution method; assay type: functional; details: HK5996/08, 24 h
[16] = test system: Klebsiella pneumoniae; experiment: Antibacterial activity against extended spectrum beta-lactamase producing Klebsiella pneumoniae HK14368/08 after 24 hrs by broth microdilution method; assay type: functional; details: HK14368/08, 24 h
[17] = test system: Mycobacterium kansasii; experiment: Antimycobacterial activity against Mycobacterium kansasii isolate 6509/96 after 7 days by micromethod; assay type: functional; details: isolate 6509/96, 168 h
[18] = test system: Mycobacterium tuberculosis; experiment: Antimycobacterial activity against Mycobacterium tuberculosis H37Rv CNCTC My 331/88 after 14 days by micromethod; assay type: functional; details: H37Rv CNCTC My 331/88, 336 h
[19] = test system: Trichophyton mentagrophytes; experiment: Antifungal activity against Trichophyton mentagrophytes 445 after 72 hrs by broth microdilution method; assay type: functional; details: Trichophyton mentagrophytes, 445, 72 h
[20] = test system: Pseudomonas aeruginosa; experiment: Antibacterial activity against Pseudomonas aeruginosa ATCC 9027 after 24 hrs by broth microdilution method; assay type: functional; details: ATCC 9027, 24 h
[21] = test system: Mycobacterium kansasii; experiment: Antimycobacterial activity against Mycobacterium kansasii CNCTC My 235/80 after 21 days by micromethod; assay type: functional; details: CNCTC My 235/80, 504 h
[22] = test system: Candida tropicalis; experiment: Antifungal activity against Candida tropicalis 156 after 24 hrs by broth microdilution method; assay type: functional; details: Candida tropicalis, 156, 24 h
[23] = test system: Mycobacterium kansasii; experiment: Antimycobacterial activity against Mycobacterium kansasii CNCTC My 235/80 after 14 days by micromethod; assay type: functional; details: CNCTC My 235/80, 336 h
[24] = test system: Nakaseomyces glabratus; experiment: Antifungal activity against Candida glabrata 20/I after 24 hrs by broth microdilution method; assay type: functional
[25] = test system: Escherichia coli; experiment: Antibacterial activity against Escherichia coli ATCC 8739 after 48 hrs by broth microdilution method; assay type: functional; details: ATCC 8739, 48 h
[26] = test system: Trichophyton mentagrophytes; experiment: Antifungal activity against Trichophyton mentagrophytes 445 after 120 hrs by broth microdilution method; assay type: functional; details: Trichophyton mentagrophytes, 445, 120 h
[27] = test system: Pseudomonas aeruginosa; experiment: Antibacterial activity against Pseudomonas aeruginosa ATCC 9027 after 48 hrs by broth microdilution method; assay type: functional; details: ATCC 9027, 48 h
[28] = test system: Staphylococcus aureus; experiment: Antibacterial activity against Staphylococcus aureus ATCC 6538 after 48 hrs by broth microdilution method; assay type: functional; details: ATCC 6538, 48 h
[29] = test system: Mycobacterium kansasii; experiment: Antimycobacterial activity against Mycobacterium kansasii isolate 6509/96 after 21 days by micromethod; assay type: functional; details: isolate 6509/96, 504 h
[30] = test system: Lichtheimia corymbifera; experiment: Antifungal activity against Absidia corymbifera 272 after 48 hrs by broth microdilution method; assay type: functional; details: Lichtheimia corymbifera, 272, 48 h
[31] = test system: Trichosporon asahii; experiment: Antifungal activity against Trichosporon asahii 1188 after 48 hrs by broth microdilution method; assay type: functional; details: Trichosporon asahii, 1188, 48 h
[32] = test system: Pichia kudriavzevii; experiment: Antifungal activity against Candida krusei E28 after 48 hrs by broth microdilution method; assay type: functional; details: E28, 48 h
[33] = test system: Mycobacterium avium; experiment: Antimycobacterial activity against Mycobacterium avium CNCTC My 330/80 after 21 days by micromethod; assay type: functional; details: CNCTC My 330/80, 504 h
[34] = test system: Mycobacterium kansasii; experiment: Antimycobacterial activity against Mycobacterium kansasii isolate 6509/96 after 14 days by micromethod; assay type: functional; details: isolate 6509/96, 336 h
[35] = test system: Aspergillus fumigatus; experiment: Antifungal activity against Aspergillus fumigatus 231 after 24 hrs by broth microdilution method; assay type: functional; details: Aspergillus fumigatus, 231, 24 h
[36] = test system: CHO-K1; experiment: Cytotoxicity against CHOK1 cells after 24 hrs by MTT assay; assay type: cell-based; details: Cricetulus griseus, CHO-K1, 24 h
[37] = test system: Klebsiella pneumoniae; experiment: Antibacterial activity against extended spectrum beta-lactamase producing Klebsiella pneumoniae HK14368/08 after 48 hrs by broth microdilution method; assay type: functional; details: HK14368/08, 48 h
[38] = test system: Nakaseomyces glabratus; experiment: Antifungal activity against Candida glabrata 20/I after 48 hrs by broth microdilution method; assay type: functional
[39] = test system: Mycobacterium kansasii; experiment: Antimycobacterial activity against Mycobacterium kansasii CNCTC My 235/80 after 7 days by micromethod; assay type: functional; details: CNCTC My 235/80, 168 h
[40] = test system: Staphylococcus epidermidis; experiment: Antibacterial activity against Staphylococcus epidermidis HK6966/08 after 24 hrs by broth microdilution method; assay type: functional; details: HK6966/08, 24 h
[41] = test system: Staphylococcus epidermidis; experiment: Antibacterial activity against Staphylococcus epidermidis HK6966/08 after 48 hrs by broth microdilution method; assay type: functional; details: HK6966/08, 48 h
[42] = test system: Staphylococcus aureus; experiment: Antibacterial activity against Staphylococcus aureus ATCC 6538 after 24 hrs by broth microdilution method; assay type: functional; details: ATCC 6538, 24 h
[43] = test system: Pichia kudriavzevii; experiment: Antifungal activity against Candida krusei E28 after 24 hrs by broth microdilution method; assay type: functional; details: E28, 24 h

O=[N+]([O-])c1cc(-c2nnn(Cc3ccc(Cl)cc3)n2)cc([N+](=O)[O-])c1
MIC [1]: 500 µM (≈ 180 µg/mL)
MIC [2]: > 500 µM
MIC [3]: 250 µM (≈ 90.2 µg/mL)
MIC [4]: > 500 µM
MIC99 [5]: 8 µM (≈ 2.89 µg/mL)
MIC [6]: > 500 µM
MIC99 [7]: 0.25 µM (≈ 0.0902 µg/mL)
MIC [8]: > 500 µM
MIC [9]: > 500 µM
MIC [10]: > 500 µM
MIC [11]: > 500 µM
MIC [12]: > 500 µM
MIC [13]: > 500 µM
MIC [14]: > 500 µM
MIC [15]: > 500 µM
MIC [16]: > 500 µM
MIC99 [17]: 0.5 µM (≈ 0.18 µg/mL)
MIC99 [18]: 0.25 µM (≈ 0.0902 µg/mL)
MIC [19]: > 500 µM
MIC [20]: > 500 µM
MIC99 [21]: 2 µM (≈ 0.721 µg/mL)
MIC [22]: 250 µM (≈ 90.2 µg/mL)
MIC99 [23]: 1 µM (≈ 0.361 µg/mL)
MIC [24]: > 500 µM
MIC [25]: > 500 µM
MIC [26]: > 500 µM
MIC [27]: > 500 µM
MIC [28]: 31.2 µM (≈ 11.3 µg/mL)
MIC99 [29]: 2 µM (≈ 0.721 µg/mL)
MIC [30]: > 500 µM
MIC [31]: 500 µM (≈ 180 µg/mL)
MIC [32]: > 500 µM
MIC99 [33]: 8 µM (≈ 2.89 µg/mL)
MIC99 [34]: 1 µM (≈ 0.361 µg/mL)
MIC [35]: > 500 µM
IC50 [36]: 170 µM
MIC [37]: > 500 µM
MIC [38]: > 500 µM
MIC99 [39]: 0.25 µM (≈ 0.0902 µg/mL)
MIC [40]: 15.6 µM (≈ 5.63 µg/mL)
MIC [41]: 15.6 µM (≈ 5.63 µg/mL)
MIC [42]: 31.2 µM (≈ 11.3 µg/mL)
MIC [43]: > 500 µM

COc1cccc(Cn2nnc(-c3cc([N+](=O)[O-])cc([N+](=O)[O-])c3)n2)c1
MIC [1]: > 500 µM
MIC [2]: > 500 µM
MIC [3]: > 500 µM
MIC [4]: > 500 µM
MIC99 [5]: 4 µM (≈ 1.43 µg/mL)
MIC [6]: > 500 µM
MIC99 [7]: 1 µM (≈ 0.356 µg/mL)
MIC [8]: > 500 µM
MIC [9]: > 500 µM
MIC [10]: > 500 µM
MIC [11]: > 500 µM
MIC [12]: > 500 µM
MIC [13]: > 500 µM
MIC [14]: > 500 µM
MIC [15]: > 500 µM
MIC [16]: > 500 µM
MIC99 [17]: 1 µM (≈ 0.356 µg/mL)
MIC99 [18]: 1 µM (≈ 0.356 µg/mL)
MIC [19]: > 500 µM
MIC [20]: > 500 µM
MIC99 [21]: 4 µM (≈ 1.43 µg/mL)
MIC [22]: > 500 µM
MIC99 [23]: 2 µM (≈ 0.713 µg/mL)
MIC [24]: > 500 µM
MIC [25]: > 500 µM
MIC [26]: > 500 µM
MIC [27]: > 500 µM
MIC [28]: > 500 µM
MIC99 [29]: 2 µM (≈ 0.713 µg/mL)
MIC [30]: > 500 µM
MIC [31]: > 500 µM
MIC [32]: > 500 µM
MIC99 [33]: 8 µM (≈ 2.85 µg/mL)
MIC99 [34]: 2 µM (≈ 0.713 µg/mL)
MIC [35]: > 500 µM
IC50 [36]: > 100 µM
MIC [37]: > 500 µM
MIC [38]: > 500 µM
MIC99 [39]: 1 µM (≈ 0.356 µg/mL)
MIC [40]: > 500 µM
MIC [41]: > 500 µM
MIC [42]: > 500 µM
MIC [43]: > 500 µM

Reference: ChEMBL document CHEMBL4011590, “Structure-activity relationship studies on 3,5-dinitrophenyl tetrazoles as antitubercular agents” (Eur J Med Chem, 2017)
